The target in this experiment is T1, small-conductance Ca2+-activated K+ channels (SK channels, subtype 2) (Homo sapiens, UniProt Q9H2S1).
T1 construct: expressed in transfected cells; host or cells: HEK293
Put plainly: whole-cell patch-clamp of ionic current through SK2 channels in HEK293 cells (SC100). Type of experiment: cell-based. To be noted: concentration that increases the basal current by 100%; HEK293 cells expressing SK2 channels. As for the experimental part:
The biological activity was determined as follows. The ionic current through small-conductance Ca^2+-activated K^+ channels (SK channels, subtype 2) was measured using the whole-cell configuration of the patch-clamp technique in a patch-clamp set-up using HEK293 tissue culture cells expressing SK2 channels as described in Hougaard et al., British Journal of Pharmacology 151, 655-665, May 8, 2007, the entire teachings of which are incorporated herein by reference. In one aspect, a compound is defined to be an SK PAM if the compound increases current in this assay, for example, if the SC100 value of the compound is less than or equal to 10 μM as determined by this assay. The SC100 value is defined to be the concentration of compound that increases the basal current by 100%.
(In general: The patch-clamp technique gives a direct electrical read-out from membranes.)
In the case of `Cc1cc(C)n(-c2nc(NC3CCC(F)(F)CC3)cc(-n3cccn3)n2)n1` [Compound 117, N-(4,4-difluorocyclohexyl)-2-(3,5-dimethyl-1H-pyrazol-1-yl)-6-(1H-pyrazol-1-yl)pyrimidin-4-amine], the SC100 entry was “++ (++ means 200 nM-1000 nM)”.

`Cc1cc(C)n(-c2nc3c(c(NC4CCC(F)(F)CC4)n2)CCN(CCO)C3)n1` [Compound 118, 2-(4-((4,4-difluorocyclohexyl)amino)-2-(3,5-dimethyl-1H-pyrazol-1-yl)-5,8-dihydropyrido[3,4-d]pyrimidin-7(6H)-yl)ethan-1-ol]: the SC100 result is listed as “+ (+ means >1 uM)”.

`Cc1cc(-n2ccc(C)n2)nc(NC2CCC(F)(F)CC2)n1` [Compound 120, N-(4,4-difluorocyclohexyl)-4-methyl-6-(3-methyl-1H-pyrazol-1-yl)pyrimidin-2-amine]: the SC100 result is given as “++ (++ means 200 nM-1000 nM)”.

As to `Cc1cc(C)n(-c2nc3c(c(NC4CCC(F)(F)CC4)n2)CCN(CC(N)=O)C3)n1` [Compound 121, 2-(4-((4,4-difluorocyclohexyl)amino)-2-(3,5-dimethyl-1H-pyrazol-1-yl)-5,8-dihydropyrido[3,4-d]pyrimidin-7(6H)-yl)acetamide], the SC100 entry is “+ (+ means >1 uM)”.

As for `Cc1cc(C)n(-c2nc3c(c(NC4CCC(F)(F)CC4)n2)CCN(CC#N)C3)n1` [Compound 122, 2-(4-((4,4-difluorocyclohexyl)amino)-2-(3,5-dimethyl-1H-pyrazol-1-yl)-5,8-dihydropyrido [3,4-d]pyrimidin-7(6H)-yl)acetonitrile], the SC100 entry is reported as “+ (+ means >1 uM)”.

As for `Cc1cc(C)n(-c2nc3c(c(NC4CCC(F)(F)CC4)n2)CCN(C(C)C)C3)n1` [Compound 123, N-(4,4-difluorocyclohexyl)-2-(3,5-dimethyl-1H-pyrazol-1-yl)-7-isopropyl-5,6,7,8-tetrahydropyrido[3,4-d]pyrimidin-4-amine], the SC100 result is “+ (+ means >1 uM)”.

As for `Cc1cc(C)n(-c2nc(NC3CCC(F)(F)CC3)cc(NC(C)c3nccs3)n2)n1` (stereo not drawn) [Compound 124, N4-(4,4-difluorocyclohexyl)-2-(3,5-dimethyl-1H-pyrazol-1-yl)-N6-(1-(thiazol-2-yl)ethyl)pyrimidine-4,6-diamine], the SC100 entry is on record as “+ (+ means >1 uM)”.

With `Cc1cc(C)n(-c2nc(NC3CCC(F)(F)CC3)cc(NC3CCN(C)C3=O)n2)n1` (stereo not drawn) [Compound 125, 3-((6-((4,4-difluorocyclohexyl)amino)-2-(3,5-dimethyl-1H-pyrazol-1-yl)pyrimidin-4-yl)amino)-1-methylpyrrolidin-2-one], the SC100 entry was “+ (+ means >1 uM)”.

Regarding `Cc1cc(C)n(-c2cc(-n3cccn3)cc(NC3CCC(F)(F)CC3)n2)n1` [Compound 127, N-(4,4-difluorocyclohexyl)-6-(3,5-dimethyl-1H-pyrazol-1-yl)-4-(1H-pyrazol-1-yl)pyridin-2-amine], the SC100 result is reported as “++ (++ means 200 nM-1000 nM)”.

For the compound `Cc1cc(C)n(-c2nc(NC3CCC(F)(F)CC3)cc(N[C@@H]3CCN(C)C3=O)n2)n1` [Compound 129, (−)-3-((6-((4,4-difluorocyclohexyl)amino)-2-(3,5-dimethyl-1H-pyrazol-1-yl)pyrimidin-4-yl)amino)-1-methylpyrrolidin-2-one], the SC100 entry was “+ (+ means >1 uM)”.

Regarding `CC(=O)N1CCN(c2cc(NC3CCC(F)(F)C3)nc(-n3nc(C)cc3C)n2)CC1` (stereo not drawn) [Compound 130, 1-(4-(6-((3,3-difluorocyclopentyl)amino)-2-(3,5-dimethyl-1H-pyrazol-1-yl)pyrimidin-4-yl)piperazin-1-yl)ethan-1-one], the SC100 result is listed as “+ (+ means >1 uM)”.

On to `Cc1cc(C)n(-c2nc(NC3CCC(F)(F)CC3)cc(C(N)=O)n2)n1` [Compound 131, 6-((4,4-difluorocyclohexyl)amino)-2-(3,5-dimethyl-1H-pyrazol-1-yl)pyrimidine-4-carboxamide], for which the SC100 entry is on record as “+ (+ means >1 uM)”.

The values are drawn from US10774064B2 (Cadent Therapeutics, Inc., priority 2016, dated 2020).
